In patent US10959432B2, “Microbiocidal oxadiazole derivatives” (Syngenta Participations AG, priority 2016, dated 2021):
Where two headings read alike, the source gives them in different places.

Tests used:
[1] = test system: Glomerella laqenarium (Colletotrichum lagenarium); experiment: Fungicidal activity against Glomerella lagenarium (Colletotrichum lagenarium) liquid culture / cucumber / preventative (anthracnose); assay type: cell-based; settings: Colletotrichum orbiculare, read-out: disease control compared to untreated control (inhibition of growth measured photometrically)
Procedure: Mycelia fragments or conidia suspensions of a fungus prepared either freshly from liquid cultures of the fungus or from cryogenic storage, are directly mixed into nutrient broth. DMSO solutions of the test compound (max. 10 mg/ml) are diluted with 0.025% Tween20 by a factor of 50 and 10 μl of this solution is pipetted into a microtiter plate (96-well format). The nutrient broth containing the fungal spores/mycelia fragments is then added to give an end concentration of the tested compound. The test plates are incubated in the dark at 24° C. and 96% relative humidity. The inhibition of fungal growth is determined photometrically after 2 to 7 days, depending on the pathosystem, and percent antifungal activity relative to the untreated check is calculated.
Example 4: Fungicidal Activity Against Glomerella laqenarium (Colletotrichum lagenarium) Liquid Culture/Cucumber/Preventative (Anthracnose)
Conidia of the fungus from cryogenic storage are directly mixed into nutrient broth (PDB—potato dextrose broth). After placing a (DMSO) solution of test compound into a microtiter plate (96-well format), the nutrient broth containing the fungal spores is added. The test plates are incubated at 24° C. and the inhibition of growth is measured photometrically 3 to 4 days after application.
The following compounds at 20 ppm in the applied formulation give at least 80% disease control in this test when compared to untreated control under the same conditions, which show extensive disease development.

Phakopsora pachyrhizi = experiment: Fungicidal activity against Phakopsora pachyrhizi / soybean / leaf disc preventative (Asian soybean rust); assay type: in vivo; settings: foliar, read-out: disease control compared to untreated control leaf disks
Procedure: (§1) Leaf disks or leaf segments of various plant species are cut from plants grown in a greenhouse. The cut leaf disks or segments are placed in multiwell plates (24-well format) onto water agar. The leaf disks are sprayed with a test solution before (preventative) or after (curative) inoculation. Compounds to be tested are prepared as DMSO solutions (max. 10 mg/ml) which are diluted to the appropriate concentration with 0.025% Tween20 just before spraying. The inoculated leaf disks or segments are incubated under defined conditions (temperature, relative humidity, light, etc.) according to the respective test system. A single evaluation of disease level is carried out 3 to 14 days after inoculation, depending on the pathosystem. Percent disease control relative to the untreated check leaf disks or segments is then calculated. General Examples of Liquid Culture Tests in Well Plates:
Example 3: Fungicidal Activity Against Phakopsora pachyrhizi/Soybean/Leaf Disc Preventative (Asian Soybean Rust)
Soybean leaf disks are placed on water agar in multiwell plates (24-well format) and sprayed with the formulated test compound diluted in water. One day after application leaf discs are inoculated by spraying a spore suspension on the lower leaf surface. After an incubation period in a climate cabinet of 24-36 hours in darkness at 20° C. and 75% rh leaf disc are kept at 20° C. with 12 h light/day and 75% rh. The activity of a compound is assessed as percent disease control compared to untreated when an appropriate level of disease damage appears in untreated check leaf disks (12 to 14 days after application).
(§2) The following compounds at 200 ppm in the applied formulation give at least 80% disease control in this test when compared to untreated control leaf disks under the same conditions, which show extensive disease development.

[2] = test system: Puccinia recondita f. sp. tritici; experiment: Fungicidal activity against Puccinia recondita f. sp. tritici / wheat / leaf disc preventative (brown rust); assay type: in vivo; settings: foliar, 200 ppm in the applied formulation, wheat leaf segments cv. Kanzler, preventative (inoculated 1 day after application), assessed 7 to 9 days after application, read-out: disease control compared to untreated control leaf disks
Procedure: as §1
Example 1: Fungicidal Activity Against Puccinia recondita f. sp. tritici/Wheat/Leaf Disc Preventative (Brown Rust)
Wheat leaf segments cv. Kanzler were placed on agar in multiwell plates (24-well format) and sprayed with the formulated test compound diluted in water. The leaf disks were inoculated with a spore suspension of the fungus 1 day after application. The inoculated leaf segments were incubated at 19C and 75% relative humidity (rh) under a light regime of 12 hours light/12 hours darkness in a climate cabinet and the activity of a compound was assessed as percent disease control compared to untreated when an appropriate level of disease damage appears in untreated check leaf segments (7 to 9 days after application).
as §2

[3] = test system: Puccinia recondita f. sp. tritici; experiment: Fungicidal activity against Puccinia recondita f. sp. tritici / wheat / leaf disc curative (brown rust); assay type: in vivo; settings: foliar, 200 ppm in the applied formulation, wheat leaf segments cv. Kanzler, curative (applied 1 day after inoculation), assessed 6 to 8 days after application, read-out: disease control compared to untreated control leaf disks
Procedure: as §1
Example 2: Fungicidal Activity Against Puccinia recondita f. sp. Tritici/Wheat/Leaf Disc Curative (Brown Rust)
Wheat leaf segments cv. Kanzler are placed on agar in multiwell plates (24-well format). The leaf segments are then inoculated with a spore suspension of the fungus. Plates were stored in darkness at 19° C. and 75% relative humidity. The formulated test compound diluted in water was applied 1 day after inoculation. The leaf segments were incubated at 19° C. and 75% relative humidity under a light regime of 12 hours light/12 hours darkness in a climate cabinet and the activity of a compound was assessed as percent disease control compared to untreated when an appropriate level of disease damage appears in untreated check leaf segments (6 to 8 days after application).
as §2

[4] = 20 ppm in the applied formulation, liquid culture in PDB, 24° C., 3 to 4 days after application
[5] = 200 ppm in the applied formulation, soybean leaf disks, preventative (inoculated one day after application), assessed 12 to 14 days after application

| Structure (SMILES) | inhibition at 20 ppm [1, 4] [%] | pest or weed control at 200 ppm (Phakopsora pachyrhizi; [5]) [%] | also measured |
| --- | --- | --- | --- |
| CCCCN(CCO)C(=O)c1ccc(-c2noc(C(F)(F)F)n2)cc1 [Compound 3a.25, N-butyl-N-(2-hydroxyethyl)-4-[5-(trifluoromethyl)-1,2,4-oxadiazol-3-yl]benzamide] | ≥ 80 | ≥ 80 | – |
| CN(CCCCO)C(=O)c1ccc(-c2noc(C(F)(F)F)n2)cc1 [Compound 3a.19, N-(4-hydroxybutyl)-N-methyl-4-[5-(trifluoromethyl)-1,2,4-oxadiazol-3-yl]benzamide] | – | ≥ 80 | – |
| COCCN(C(=O)c1ccc(-c2noc(C(F)(F)F)n2)cc1F)C(C)C [Compound 3b.13, 2-fluoro-N-isopropyl-N-(2-methoxyethyl)-4-[5-(trifluoromethyl)-1,2,4-oxadiazol-3-yl]benzamide] | ≥ 80 | ≥ 80 | – |
| O=C(NCCCCO)c1ccc(-c2noc(C(F)(F)F)n2)cc1F [Compound 3b.26, 2-fluoro-N-(4-hydroxybutyl)-4-[5-(trifluoromethyl)-1,2,4-oxadiazol-3-yl]benzamide] | ≥ 80 | ≥ 80 | pest or weed control at 200 ppm [2]: ≥ 80% |
| CCC(CC)CNC(=O)c1ccc(-c2noc(C(F)(F)F)n2)cc1F [Compound 3b.42, N-(2-ethylbutyl)-2-fluoro-4-[5-(trifluoromethyl)-1,2,4-oxadiazol-3-yl]benzamide] | – | ≥ 80 | – |
| CCCN(CC1CC1)C(=O)c1ccc(-c2noc(C(F)(F)F)n2)cc1 [Compound 2a.1, N-(cyclopropylmethyl)-N-propyl-4-[5-(trifluoromethyl)-1,2,4-oxadiazol-3-yl]benzamide] | ≥ 80 | ≥ 80 | – |
| CC(CCO)NC(=O)c1ccc(-c2noc(C(F)(F)F)n2)cc1F (stereo not shown) [Compound 3b.17, 2-fluoro-N-(3-hydroxy-1-methyl-propyl)-4-[5-(trifluoromethyl)-1,2,4-oxadiazol-3-yl]benzamide] | – | ≥ 80 | pest or weed control at 200 ppm [3]: ≥ 80% |
| CC(C)(CCO)NC(=O)c1ccc(-c2noc(C(F)(F)F)n2)cc1 [Compound 3a.42, N-(3-hydroxy-1,1-dimethyl-propyl)-4-[5-(trifluoromethyl)-1,2,4-oxadiazol-3-yl]benzamide] | – | ≥ 80 | – |
| CCCCCCNC(=O)c1ccc(-c2noc(C(F)(F)F)n2)cc1 [Compound 3a.29, N-hexyl-4-[5-(trifluoromethyl)-1,2,4-oxadiazol-3-yl]benzamide] | – | – | inhibition at 20 ppm [1]: ≥ 80%; pest or weed control at 200 ppm (Phakopsora pachyrhizi): ≥ 80% |
| CN(CCCO)C(=O)c1ccc(-c2noc(C(F)(F)F)n2)cc1 [Compound 3a.6, N-(3-hydroxypropyl)-N-methyl-4-[5-(trifluoromethyl)-1,2,4-oxadiazol-3-yl]benzamide] | – | ≥ 80 | pest or weed control at 200 ppm [3]: ≥ 80% |
| CCOC(=O)CC(C)NC(=O)c1ccc(-c2noc(C(F)(F)F)n2)cc1 (stereo not shown) [Compound 3a.26, ethyl 3-[[4-[5-(trifluoromethyl)-1,2,4-oxadiazol-3-yl]benzoyl]amino]butanoate] | ≥ 80 | ≥ 80 | pest or weed control at 200 ppm [2]: ≥ 80% |
| O=C(Nc1cn[nH]c1)c1ccc(-c2noc(C(F)(F)F)n2)cc1 [Compound 5a.3, N-(1H-pyrazol-4-yl)-4-[5-(trifluoromethyl)-1,2,4-oxadiazol-3-yl]benzamide] | – | ≥ 80 | – |
| CN(CCO)C(=O)c1ccc(-c2noc(C(F)(F)F)n2)cc1F [Compound 3b.25, 2-fluoro-N-(2-hydroxyethyl)-N-methyl-4-[5-(trifluoromethyl)-1,2,4-oxadiazol-3-yl]benzamide] | – | ≥ 80 | – |
| CCC(CC)CNC(=O)c1ccc(-c2noc(C(F)(F)F)n2)cc1 [Compound 3a.39, N-(2-ethylbutyl)-4-[5-(trifluoromethyl)-1,2,4-oxadiazol-3-yl]benzamide] | ≥ 80 | ≥ 80 | – |
| Cc1cc(C#N)c(NC(=O)c2ccc(-c3noc(C(F)(F)F)n3)cc2)s1 [Compound 5a.1, N-(3-cyano-5-methyl-2-thienyl)-4-[5-(trifluoromethyl)-1,2,4-oxadiazol-3-yl]benzamide] | – | ≥ 80 | – |
| CC(C)CN(CC(C)C)C(=O)c1ccc(-c2noc(C(F)(F)F)n2)cc1 [Compound 3a.23, N,N-diisobutyl-4-[5-(trifluoromethyl)-1,2,4-oxadiazol-3-yl]benzamide] | ≥ 80 | ≥ 80 | – |
| CC(C#N)(NC(=O)c1ccc(-c2noc(C(F)(F)F)n2)cc1F)C1CC1 (stereo not shown) [Compound 2b.9, N-(1-cyano-1-cyclopropyl-ethyl)-2-fluoro-4-[5-(trifluoromethyl)-1,2,4-oxadiazol-3-yl]benzamide] | – | ≥ 80 | pest or weed control at 200 ppm [2]: ≥ 80%; pest or weed control at 200 ppm [3]: ≥ 80% |
| CN(CCCO)C(=O)c1ccc(-c2noc(C(F)(F)F)n2)cc1F [Compound 3b.9, 2-fluoro-N-(3-hydroxypropyl)-N-methyl-4-[5-(trifluoromethyl)-1,2,4-oxadiazol-3-yl]benzamide] | – | ≥ 80 | pest or weed control at 200 ppm [3]: ≥ 80% |
| O=C(NCCCCCO)c1ccc(-c2noc(C(F)(F)F)n2)cc1 [Compound 3a.21, N-(5-hydroxypentyl)-4-[5-(trifluoromethyl)-1,2,4-oxadiazol-3-yl]benzamide] | – | ≥ 80 | pest or weed control at 200 ppm [3]: ≥ 80% |
| CN(CC(C)(C)CO)C(=O)c1ccc(-c2noc(C(F)(F)F)n2)cc1 [Compound 3a.8, N-(3-hydroxy-2,2-dimethyl-propyl)-N-methyl-4-[5-(trifluoromethyl)-1,2,4-oxadiazol-3-yl]benzamide] | ≥ 80 | ≥ 80 | – |
| CN(C(=O)c1ccc(-c2noc(C(F)(F)F)n2)cc1)C1CCN(C(=O)OC(C)(C)C)C1 (stereo not shown) [Compound 1a.1, tert-butyl 3-[methyl-[4-[5-(trifluoromethyl)-1,2,4-oxadiazol-3-yl]benzoyl]amino]pyrrolidine-1-carboxylate] | ≥ 80 | ≥ 80 | pest or weed control at 200 ppm [2]: ≥ 80% |
| CC(CCO)NC(=O)c1ccc(-c2noc(C(F)(F)F)n2)cc1 (stereo not shown) [Compound 3a.15, N-(3-hydroxy-1-methyl-propyl)-4-[5-(trifluoromethyl)-1,2,4-oxadiazol-3-yl]benzamide] | – | ≥ 80 | pest or weed control at 200 ppm [3]: ≥ 80% |
| COC1=NS(C)=NC(N(C)C(=O)c2ccc(-c3noc(C(F)(F)F)n3)cc2F)=N1 (stereo not shown) [Compound 5b.8, 2-fluoro-N-(5-methoxy-1-methyl-1-thia-2,4,6-triazacyclohexa-2,4,6-trien-3-yl)-N-methyl-4-[5-(trifluoromethyl)-1,2,4-oxadiazol-3-yl]benzamide] | – | ≥ 80 | – |
